From patent publication US20130217664A1, “NOVEL COMPOUNDS USEFUL FOR THE TREATMENT OF DEGENERATIVE AND INFLAMMATORY DISEASES” (priority 2012, published 2013)
pIC50: −log10 of the molar value. Like-named read-outs stand apart in the source and are kept apart here.

How the values were obtained:
human JAK1 = target: T1, human JAK1 (Homo sapiens, UniProt P23458); experiment: JAK1 inhibition assay (polyGT substrate / Ulight-JAK1 peptide); type: biochemical; conditions: recombinant human JAK1 catalytic domain; polyGT or Ulight-JAK1 peptide assay
T1 construct: catalytic domain, amino acids 866-1154; catalog number PV4774; purchased Invitrogen PV4774
T1 sequence (P23458 866-1154): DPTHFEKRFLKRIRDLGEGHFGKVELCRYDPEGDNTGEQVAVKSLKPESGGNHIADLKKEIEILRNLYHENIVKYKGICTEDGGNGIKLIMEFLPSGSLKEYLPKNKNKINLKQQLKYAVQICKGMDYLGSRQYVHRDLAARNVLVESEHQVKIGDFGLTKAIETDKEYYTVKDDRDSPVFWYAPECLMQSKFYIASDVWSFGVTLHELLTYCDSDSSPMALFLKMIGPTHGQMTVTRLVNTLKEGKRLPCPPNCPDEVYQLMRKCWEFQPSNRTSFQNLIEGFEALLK
How it was run: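 Two formats. PolyGT radiometric: 45 min at 30 °C, stopped with phosphoric acid, counted as cpm. Ulight-JAK1 peptide: 60 min at room temperature, stopped with Eu-anti-phosphotyrosine/EDTA, read as RFU. Percent inhibition normalised to vehicle and 10 μM staurosporine.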

human JAK2 = target: T2, human JAK2 (Homo sapiens, UniProt O60674); experiment: JAK2 inhibition assay (polyGT substrate / Ulight-JAK1 peptide); type: biochemical; conditions: recombinant human JAK2 catalytic domain; polyGT or Ulight-JAK1 peptide assay
T2 construct: catalytic domain (amino acids 808-1132; catalog number PV4210); GST; purchased Invitrogen PV4210
T2 sequence (O60674 808-1132): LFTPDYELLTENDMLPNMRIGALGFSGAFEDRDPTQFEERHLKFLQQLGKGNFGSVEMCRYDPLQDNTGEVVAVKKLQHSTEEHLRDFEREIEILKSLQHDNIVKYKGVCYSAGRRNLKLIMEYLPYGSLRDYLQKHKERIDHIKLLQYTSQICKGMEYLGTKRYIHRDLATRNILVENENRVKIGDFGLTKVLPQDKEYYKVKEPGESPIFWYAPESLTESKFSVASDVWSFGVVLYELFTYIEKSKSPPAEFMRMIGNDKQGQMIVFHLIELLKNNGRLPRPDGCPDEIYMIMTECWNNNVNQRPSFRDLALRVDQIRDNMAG
How it was run: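 Radiometric: 0.025 mU JAK2 with 2.5 μg polyGT, 1 μM ATP plus ^33P-ATP in MOPS pH 7.5 buffer, 1% DMSO, 90 min at 30° C.; filter counting. Alternative TR-FRET format with Ulight-JAK1 peptide, 60 min at room temperature, Eu-anti-phosphotyrosine detection.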

[1] = system: pSTAT1(2)-luciferase reporter in HeLa cells triggered with human OSM; experiment: JAK-STAT signalling assay; type: cell-based; conditions: HeLa cells, pSTAT1(2)-luciferase reporter, human OSM 33 ng/mL, read-out: JAK-STAT IC50
How it was run: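 HeLa cells transiently co-transfected with pSTAT1(2)-luciferase and LacZ control reporter, preincubated with compound 60 min, then stimulated with human OSM (33 ng/mL final) overnight at 37 °C. Luciferase read by luminescence; percent inhibition from vehicle and no-trigger controls, EC50 from dose-response.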

Structure (SMILES)	pIC50 (human JAK1)	pIC50 (human JAK2)	pIC50 ([1]; Homo sapiens, HeLa)	pIC50 [1]
CCc1cc(C(=O)NC)ccc1N(C)c1cc2c(cn1)ncn2C [Compound 85]	7.00 to 11.00	6.00 to 6.30	< 6.00	
Cc1ccc(OCC#N)cc1N(C)c1cc2c(cn1)ncn2C [Compound 57, 2-(4-methyl-3-(methyl(1-methyl-1H-imidazo[4,5-c]pyridin-6-yl)amino)phenoxy)acetoni-trile]	7.00 to 11.00	6.30 to 7.00	< 6.00	
CCc1cc(-c2cccnc2)ccc1N(C)c1cc2c(cn1)ncn2C [Compound 94, N-(2-ethyl-4-(pyridin-3-yl)phenyl)-N,1-dimethyl-1H-imidazo[4,5-c]pyridin-6-amine]	7.00 to 11.00	6.30 to 7.00	6.30 to 9.00	
Cc1cc(OCCCC#N)ccc1N(C)c1cc2c(cn1)ncn2C [Compound 48, 4-(3-methyl-4-(methyl(1-methyl-1H-imidazo[4,5-c]pyridin-6-yl)amino)phenoxy)butane nitrile]	7.00 to 11.00	< 6.00	< 6.00	
Cc1cc(OCC#N)ccc1N(C)c1cc2c(cn1)ncn2C [Compound 47, 2-(3-methyl-4-(methyl(1-methyl-1H-imidazo[4,5-c]pyridin-6-yl)amino)phenoxy)acetoni-trile]	7.00 to 11.00	6.30 to 7.00	< 6.00	
CCc1cc(-c2cncnc2)ccc1N(C)c1cc2c(cn1)ncn2C [Compound 95, N-(2-ethyl-4-(pyrimidin-5-yl)phenyl)-N,1-dimethyl-1H-imidazo[4,5-c]pyridin-6-amine]	7.00 to 11.00	6.30 to 7.00	6.00 to 6.30	
COC(=O)c1ccc(N(C)c2cc3c(cn2)ncn3C)c(C)c1 [Compound 27, Methyl 3-methyl-4-(methyl(1-methyl-1H-imidazo[4,5-c]pyridin-6-yl)amino)benzoate]	6.30 to 7.00	< 6.00	< 6.00	
Cc1cc(C#N)ccc1N(C)c1cc2c(cn1)ncn2C [Compound 31, 3-Methyl-4-(methyl(1-methyl-1H-imidazo[4,5-c]pyridin-6-yl)amino)benzonitrile]	7.00 to 11.00	< 6.00	< 6.00	
Cc1ccc(OCc2ccccc2)cc1N(C)c1cc2c(cn1)ncn2C [Compound 56, N-(5-(benzyloxy)-2-methylphenyl)-N,1-dimethyl-1H-imidazo[4,5-c]pyridin-6-amine]	6.30 to 7.00	< 6.00		< 6.00
CNC(=O)c1ccc(N(C)c2cc3c(cn2)ncn3C)c(C)c1 [Compound 30, N,3-Dimethyl-4-(methyl(1-methyl-1H-imidazo[4,5-c]pyridin-6-yl)amino)-benzamide]	6.30 to 7.00	< 6.00	< 6.00	

The next lines start with the values.

pIC50 (human JAK1)	pIC50 (human JAK2)	pIC50 ([1]; Homo sapiens, HeLa)	pIC50 [1]	Structure (SMILES)
7.00 to 11.00	7.00 to 11.00	6.00 to 6.30		CCc1cc(CN(C)S(C)(=O)=O)c(F)cc1N(C)c1cc2c(cn1)ncn2C [Compound 319, N-{5-Ethyl-2-fluoro-4-[methyl-(1-methyl-1H-imidazo[4,5-c]pyridin-6-yl)-amino]-benzyl}-N-methyl-methanesulfonamide]
7.00 to 11.00	6.30 to 7.00	6.30 to 9.00		CCc1cc(-c2ccc(C#N)nc2)ccc1N(C)c1cc2c(cn1)ncn2C [Compound 114, 5-(3-ethyl-4-(methyl(1-methyl-1H-imidazo[4,5-c]pyridin-6-yl)amino)phenyl)picolino-nitrile]
6.00 to 6.30	< 6.00		< 6.00	CCc1cc(-c2ccc(CN)s2)ncc1N(C)c1cc2c(cn1)ncn2C [Compound 303, [6-(5-Aminomethyl-thiophen-2-yl)-4-ethyl-pyridin-3-yl]-methyl-(1-methyl-1H-imidazo[4,5-c]pyridin-6-yl)-amine]
< 6.00	< 6.00		< 6.00	COc1cc(-c2c(C)nn(C)c2C)ncc1N(C)c1cc2c(cn1)ncn2C [Compound 312]
6.30 to 7.00	6.00 to 6.30		< 6.00	CCc1cc(C2CN(C(C)=O)C2)ncc1N(C)c1cc2c(cn1)ncn2C [Compound 332, 1-(3-{4-Ethyl-5-[methyl-(1-methyl-1H-imidazo[4,5-c]pyridin-6-yl)-amino]-pyridin-2-yl}-azetidin-1-yl)-ethanone]
7.00 to 11.00	7.00 to 11.00	6.30 to 9.00		CCc1cc(C(C)O)ccc1N(C)c1cc2c(cn1)ncn2C (stereo not drawn) [Compound 101, 1-(3-Ethyl-4-(methyl(1-methyl-1H-imidazo[4,5-c]pyridin-6-yl)amino)phenyl)ethanol]
7.00 to 11.00	6.30 to 7.00		< 6.00	CCc1ccccc1N(CC(F)F)c1cc2c(cn1)ncn2C [Compound 463, N-(2,2-difluoroethyl)-N-(2-ethylphenyl)-1-methyl-1H-imidazo[4,5-c]pyridin-6-amine]
7.00 to 11.00	6.30 to 7.00		< 6.00	CCc1cc(C2CN(S(C)(=O)=O)C2)ncc1N(C)c1cc2c(cn1)ncn2C [Compound 328, [4-Ethyl-6-(1-methanesulfonyl-azetidin-3-yl)-pyridin-3-yl]-methyl-(1-methyl-1H-imidazo[4,5-c]pyridin-6-yl)-amine]
7.00 to 11.00	6.30 to 7.00	< 6.00		CCc1cc(COC)ccc1N(C)c1cc2c(cn1)ncn2C [Compound 105, N-(2-Ethyl-4-(methoxymethyl)phenyl)-N,1-dimethyl-1H-imidazo[4,5-c]pyridin-6-amine]
7.00 to 11.00	7.00 to 11.00	6.30 to 9.00		CCc1cc(CNS(C)(=O)=O)cc(F)c1N(C)c1cc2c(cn1)ncn2C [Compound 323, N-{3-Ethyl-5-fluoro-4-[methyl-(1-methyl-1H-imidazo[4,5-c]pyridin-6-yl)-amino]-benzyl}-methanesulfonamide]
